Common to all, as to type: functional, cell-based
For one assay, the system named is HEL. Kind of assay: Cytotoxicity against human HEL cells assessed as reduction in cell viability after 48 hrs by MTT assay. (In general: Tetrazolium dyes change colour on reduction, which living cells bring about.)
The next assay has as its system K562. Kind of assay: Cytotoxicity against human K562 cells assessed as reduction in cell viability after 48 hrs by MTT assay.
A further assay concerns MDA-MB-231. Kind of assay: Cytotoxicity against human MDA-MB-231 cells assessed as reduction in cell viability after 48 hrs by MTT assay.
The test system of a further assay is PC-3. Kind of assay: Cytotoxicity against human PC3 cells assessed as reduction in cell viability after 48 hrs by MTT assay.
Assay [1] is described as follows: Cytotoxicity against human WM9 cells assessed as reduction in cell viability after 48 hrs by MTT assay.

Molecules are shown by their SMILES.

Usually IC50 stands for the point on the concentration scale where inhibition reaches its midpoint. For `COc1cc(NC(=O)NC(C)(C)C)c2cc1Oc1ccc(cc1)C[C@H]1c3cc(c(OC)cc3CCN1C)Oc1c(OC)c(OC)cc3c1[C@H](C2)N(C)CC3`, the IC50 in the assay on HEL (Homo sapiens, HEL, 48 h) is 11.9 µM; in the assay on K562 (Homo sapiens, K562, 48 h) it was 4.89 µM; with MDA-MB-231 (Homo sapiens, MDA-MB-231, 48 h), 12.6 µM; in the assay with PC-3 (Homo sapiens, PC-3, 48 h), 2.97 µM; in assay [1] (Homo sapiens, WM9, 48 h), 5.37 µM.
Consider `COc1cc(NC(=O)Nc2ccc(F)cc2)c2cc1Oc1ccc(cc1)C[C@H]1c3cc(c(OC)cc3CCN1C)Oc1c(OC)c(OC)cc3c1[C@H](C2)N(C)CC3` [listing 1 of 2 here], for which the IC50 in the assay on HEL (Homo sapiens, HEL, 48 h) is 4.46 µM; in the assay with K562 (Homo sapiens, K562, 48 h), 1.81 µM; in the assay on MDA-MB-231 (Homo sapiens, MDA-MB-231, 48 h) it was 5.02 µM; with PC-3 (pc-3) it was 2.07 µM; in assay [1] (Homo sapiens, WM9, 48 h), 4.19 µM.
Regarding `CCCCNC(=S)Nc1cc(OC)c2cc1C[C@H]1c3c(cc(OC)c(OC)c3Oc3cc4c(cc3OC)CCN(C)[C@H]4Cc3ccc(cc3)O2)CCN1C`, the IC50 in the assay on HEL (Homo sapiens, HEL, 48 h) stood at 3.68 µM; in the assay on K562 (Homo sapiens, K562, 48 h) it was 2.39 µM; with MDA-MB-231 (Homo sapiens, MDA-MB-231, 48 h), 5.66 µM; in the assay with PC-3 (pc-3) it was 3.03 µM; in assay [1] (Homo sapiens, WM9, 48 h), 4.27 µM.
As to `COc1cc(NC(=O)Nc2cccc(C)c2)c2cc1Oc1ccc(cc1)C[C@H]1c3cc(c(OC)cc3CCN1C)Oc1c(OC)c(OC)cc3c1[C@H](C2)N(C)CC3`, the IC50 in the assay with HEL (Homo sapiens, HEL, 48 h) was found to be 4.86 µM; with K562 (Homo sapiens, K562, 48 h), 2.15 µM; in the assay on MDA-MB-231 (Homo sapiens, MDA-MB-231, 48 h), 10.4 µM; in the assay on PC-3 (Homo sapiens, PC-3, 48 h), 3.15 µM; in assay [1] (Homo sapiens, WM9, 48 h), 5.07 µM.
For the compound `COc1ccc2cc1Oc1ccc(cc1)C[C@H]1c3cc(c(OC)cc3CCN1C)Oc1c(OC)c(OC)cc3c1[C@H](C2)N(C)CC3`, the IC50 with HEL (hel) is 10.1 µM; in the assay with K562 (k562) it was 8.87 µM; in the assay on MDA-MB-231 (mda-mb-231), 13.6 µM; in the assay on PC-3 (pc-3) it was 4.45 µM; in assay [1] it was 7.39 µM.
In the case of `CCCCNC(=O)Nc1cc(OC)c2cc1C[C@H]1c3c(cc(OC)c(OC)c3Oc3cc4c(cc3OC)CCN(C)[C@H]4Cc3ccc(cc3)O2)CCN1C` [listing 1 of 2 here], the IC50 in the assay on HEL (Homo sapiens, HEL, 48 h) was 4.53 µM; with K562 (k562), 6.88 µM; in the assay on MDA-MB-231 (Homo sapiens, MDA-MB-231, 48 h), 5.4 µM; with PC-3 (Homo sapiens, PC-3, 48 h), 0.88 µM; in assay [1] (Homo sapiens, WM9, 48 h) it was 5.12 µM.
Turning to `COc1cc(NC(=O)NCc2ccccc2)c2cc1Oc1ccc(cc1)C[C@H]1c3cc(c(OC)cc3CCN1C)Oc1c(OC)c(OC)cc3c1[C@H](C2)N(C)CC3`, the IC50 with HEL (Homo sapiens, HEL, 48 h) was determined as 8.02 µM; with K562 (Homo sapiens, K562, 48 h) it was 4.59 µM; with MDA-MB-231 (Homo sapiens, MDA-MB-231, 48 h), 6.99 µM; in the assay on PC-3 (Homo sapiens, PC-3, 48 h) it was 5.73 µM; in assay [1] (Homo sapiens, WM9, 48 h) it was 6.14 µM.
On the same counts, the results for `COc1cc(NC(=O)Nc2ccc(C)cc2)c2cc1Oc1ccc(cc1)C[C@H]1c3cc(c(OC)cc3CCN1C)Oc1c(OC)c(OC)cc3c1[C@H](C2)N(C)CC3` are 8.08 µM, 2.89 µM, 7.28 µM, 3.85 µM and 5.13 µM.
Turning to `COc1cc(NC(=O)NC2CCCCC2)c2cc1Oc1ccc(cc1)C[C@H]1c3cc(c(OC)cc3CCN1C)Oc1c(OC)c(OC)cc3c1[C@H](C2)N(C)CC3`, the IC50 is 14.8 µM in the assay on HEL (Homo sapiens, HEL, 48 h); 5.56 µM in the assay on K562 (Homo sapiens, K562, 48 h); 16.6 µM in the assay on MDA-MB-231 (Homo sapiens, MDA-MB-231, 48 h); 3.78 µM with PC-3 (Homo sapiens, PC-3, 48 h); 10.4 µM in assay [1] (Homo sapiens, WM9, 48 h).
With `COc1cc(NC(=O)Nc2cccc(Cl)c2)c2cc1Oc1ccc(cc1)C[C@H]1c3cc(c(OC)cc3CCN1C)Oc1c(OC)c(OC)cc3c1[C@H](C2)N(C)CC3`, the 50% inhibitory concentration (IC50) in the assay with HEL (Homo sapiens, HEL, 48 h) came to 6.47 µM; in the assay with K562 (Homo sapiens, K562, 48 h) it was 2.02 µM; in the assay with MDA-MB-231 (Homo sapiens, MDA-MB-231, 48 h), 9.06 µM; with PC-3 (Homo sapiens, PC-3, 48 h), 4.54 µM; in assay [1] (Homo sapiens, WM9, 48 h) it was 3.16 µM.
For `CCCCNC(=O)Nc1cc(OC)c2cc1C[C@H]1c3c(cc(OC)c(OC)c3Oc3cc4c(cc3OC)CCN(C)[C@H]4Cc3ccc(cc3)O2)CCN1C` [listing 2 of 2 here], the IC50 in the assay on HEL (hel) was 2.67 µM; in the assay with K562 (k562) it was 2.77 µM; in the assay with MDA-MB-231 (mda-mb-231), 5.28 µM; in the assay with PC-3 (pc-3), 0.68 µM; in assay [1], 3.66 µM.
As to `C=C(C)C(=O)OCCNC(=O)Nc1cc(OC)c2cc1C[C@H]1c3c(cc(OC)c(OC)c3Oc3cc4c(cc3OC)CCN(C)[C@H]4Cc3ccc(cc3)O2)CCN1C`, the IC50 with HEL (Homo sapiens, HEL, 48 h) came out at 12.3 µM; in the assay on K562 (Homo sapiens, K562, 48 h), 8.01 µM; with MDA-MB-231 (Homo sapiens, MDA-MB-231, 48 h), 15.8 µM; in the assay with PC-3 (Homo sapiens, PC-3, 48 h), 7.82 µM; in assay [1] (Homo sapiens, WM9, 48 h), 1.83 µM.
`CNC(=S)Nc1cc(OC)c2cc1C[C@H]1c3c(cc(OC)c(OC)c3Oc3cc4c(cc3OC)CCN(C)[C@H]4Cc3ccc(cc3)O2)CCN1C`: the IC50 in the assay with HEL (Homo sapiens, HEL, 48 h) came out at 9.19 µM; in the assay with K562 (Homo sapiens, K562, 48 h) it was 7.35 µM; with MDA-MB-231 (Homo sapiens, MDA-MB-231, 48 h), 13.6 µM; in the assay with PC-3 (Homo sapiens, PC-3, 48 h), 6.43 µM; in assay [1] (Homo sapiens, WM9, 48 h), 7.37 µM.
The like results for `COc1cc(NC(=O)NC2CCCC2)c2cc1Oc1ccc(cc1)C[C@H]1c3cc(c(OC)cc3CCN1C)Oc1c(OC)c(OC)cc3c1[C@H](C2)N(C)CC3` were, in that order, 11.6 µM, 6.42 µM, 13.2 µM, 1.76 µM and 6.45 µM.
On the same counts, the results for `COc1ccc2cc1Oc1ccc(cc1)C[C@H]1c3cc(c(OC)cc3CCN1C)Oc1c(OC)c(OC)cc3c1[C@H](C2)N(C)CC3` [FANCHININ] are 16.8 µM, 13.8 µM, 22 µM, 7.87 µM and 11 µM.
As for `COc1cc(NC(=S)Nc2ccc(F)cc2)c2cc1Oc1ccc(cc1)C[C@H]1c3cc(c(OC)cc3CCN1C)Oc1c(OC)c(OC)cc3c1[C@H](C2)N(C)CC3`, the IC50 in the assay with HEL (hel) was 1.38 µM; in the assay with K562 (k562), 0.88 µM; with MDA-MB-231 (mda-mb-231) it was 1.56 µM; with PC-3 (pc-3) it was 0.33 µM; in assay [1] it was 1.63 µM.
The like results for `COc1cc(NC(=O)Nc2ccc(F)cc2)c2cc1Oc1ccc(cc1)C[C@H]1c3cc(c(OC)cc3CCN1C)Oc1c(OC)c(OC)cc3c1[C@H](C2)N(C)CC3` [listing 2 of 2 here] were, in that order, 2.58 µM, 0.93 µM, 3.06 µM, 0.77 µM and 3.49 µM.
Consider `COc1ccc(NC(=S)Nc2cc(OC)c3cc2C[C@H]2c4c(cc(OC)c(OC)c4Oc4cc5c(cc4OC)CCN(C)[C@H]5Cc4ccc(cc4)O3)CCN2C)cc1`, for which the IC50 with HEL (Homo sapiens, HEL, 48 h) was 7.38 µM; in the assay with K562 (Homo sapiens, K562, 48 h) it was 2.69 µM; in the assay on MDA-MB-231 (Homo sapiens, MDA-MB-231, 48 h), 7.4 µM; with PC-3 (Homo sapiens, PC-3, 48 h), 5.27 µM; in assay [1] (Homo sapiens, WM9, 48 h), 5.4 µM.
The like results for `COc1cc(NC(=O)Nc2cccc3ccccc23)c2cc1Oc1ccc(cc1)C[C@H]1c3cc(c(OC)cc3CCN1C)Oc1c(OC)c(OC)cc3c1[C@H](C2)N(C)CC3` were, in that order, 5.21 µM, 1.97 µM, 4.61 µM, 1.31 µM and 3.93 µM.
The like results for `COc1cc(NC(=O)Nc2ccc(OC(F)(F)F)cc2)c2cc1Oc1ccc(cc1)C[C@H]1c3cc(c(OC)cc3CCN1C)Oc1c(OC)c(OC)cc3c1[C@H](C2)N(C)CC3` were, in that order, 4.02 µM, 1.25 µM, 4.95 µM, 0.74 µM and 3.91 µM.
As for `CCNC(=O)Nc1cc(OC)c2cc1C[C@H]1c3c(cc(OC)c(OC)c3Oc3cc4c(cc3OC)CCN(C)[C@H]4Cc3ccc(cc3)O2)CCN1C`, the IC50 with HEL (Homo sapiens, HEL, 48 h) turned out to be 4.02 µM; in the assay with K562 (Homo sapiens, K562, 48 h) it was 3.2 µM; in the assay on MDA-MB-231 (Homo sapiens, MDA-MB-231, 48 h), 5.83 µM; with PC-3 (Homo sapiens, PC-3, 48 h) it was 0.98 µM; in assay [1] (Homo sapiens, WM9, 48 h) it was 2.31 µM.

Source of the values: ChEMBL document CHEMBL4138174, “Design and synthesis of novel C14-urea-tetrandrine derivatives with potent anti-cancer activity” (Eur J Med Chem, 2018).
